Measurements as given in article PMC8119466, “A screen of FDA-approved drugs identifies inhibitors of protein tyrosine phosphatase 4A3 (PTP4A3 or PRL-3)” (Scientific Reports, 2021).
Structures can show the parent of a compound that is named as a salt. Where two headings read alike, the source gives them in different places.

Experiments:
Assay type in all cases: biochemical
[1] = molecular target: T1, recombinant PRL-1 (Homo sapiens, UniProt Q93096); assay: In vitro phosphatase assay (DiFMUP hydrolysis), PRL-1; note: test concentration or dose not given here
T1 construct: 6xHis (N, cleaved yes); made in house; host or cells: E. coli One Shot BL21 Star
T1 sequence (Q93096 1-173): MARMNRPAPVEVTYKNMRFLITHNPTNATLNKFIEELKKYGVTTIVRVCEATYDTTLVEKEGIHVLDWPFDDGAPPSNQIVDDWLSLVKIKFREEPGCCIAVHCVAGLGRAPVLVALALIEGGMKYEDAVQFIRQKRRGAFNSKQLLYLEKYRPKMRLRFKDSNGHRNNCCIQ

[2] = molecular target: T2, recombinant PRL-2 (Homo sapiens, UniProt Q12974); assay: In vitro phosphatase assay (DiFMUP hydrolysis), PRL-2;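 note: PRL-2 activity read as DiFMUP hydrolysis after 20 min at room temperature with drug, enzyme first pre-reduced at 4 °C for 20 min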
T2 construct: 6xHis (N, cleaved yes); made in house; host or cells: E. coli One Shot BL21 Star
T2 sequence (Q12974 1-167): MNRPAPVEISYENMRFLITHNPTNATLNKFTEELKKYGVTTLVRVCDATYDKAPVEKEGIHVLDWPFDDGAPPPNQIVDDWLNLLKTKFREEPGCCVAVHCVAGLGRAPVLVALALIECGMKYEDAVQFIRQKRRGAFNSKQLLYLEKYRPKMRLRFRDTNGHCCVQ

[3] = molecular target: T3, recombinant PRL-3 (Homo sapiens, UniProt O75365); assay: In vitro phosphatase assay (DiFMUP hydrolysis), PRL-3; note: test concentration or dose not given here
T3 construct: 6xHis (N, cleaved yes); made in house; host or cells: E. coli One Shot BL21 Star
T3 sequence (O75365 whole entry): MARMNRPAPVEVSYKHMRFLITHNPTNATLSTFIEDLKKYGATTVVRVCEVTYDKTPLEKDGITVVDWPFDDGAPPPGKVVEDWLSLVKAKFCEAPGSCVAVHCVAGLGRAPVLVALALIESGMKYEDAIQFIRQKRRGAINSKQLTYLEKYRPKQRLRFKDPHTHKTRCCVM

[4] = FDA-approved drug screen, compared to DMSO

| Compound | % Phosphatase Activity (compared to DMSO) PRL-1 [1, 4] | % Phosphatase Activity (compared to DMSO) PRL-2 [2, 4] | % Phosphatase Activity (compared to DMSO) PRL-3 [3, 4] | % Phosphatase Activity (compared to DMSO) PRL-1 [1] | % Phosphatase Activity (compared to DMSO) PRL-2 [2] | % Phosphatase Activity (compared to DMSO) PRL-3 [3] |
| --- | --- | --- | --- | --- | --- | --- |
| Cc1nc2ccc(CN(C)c3ccc(C(=O)N[C@@H](CCC(=O)O)C(=O)O)s3)cc2c(=O)[nH]1 [Raltitrexed] | 80% | 71% | 71% | – | – | – |
| CCC(=O)NCC[C@@H]1CCc2ccc3c(c21)CCO3 [Ramelteon] | 91% | 96% | 73% | – | – | – |
| CCOC(=O)[C@H](CCc1ccccc1)N[C@@H](C)C(=O)N1[C@H](C(=O)O)C[C@@H]2CCC[C@@H]21 [Ramipril] | 84% | 86% | 93% | – | – | – |
| CNC(=C[N+](=O)[O-])NCCSCc1ccc(CN(C)C)o1 [Ranitidine] | 93% | 102% | 103% | – | – | – |
| COc1ccccc1OCC(O)CN1CCN(CC(=O)Nc2c(C)cccc2C)CC1.Cl.Cl (stereo not drawn) [Ranolazine 2HCl] | 107% | 99% | 97% | – | – | – |
| COc1ccccc1OCC(O)CN1CCN(CC(=O)Nc2c(C)cccc2C)CC1 (stereo not drawn) [Ranolazine] | 90% | 99% | 118% | – | – | – |
| CO[C@H]1C[C@@H]2CC[C@@H](C)[C@@](O)(O2)C(=O)C(=O)N2CCCC[C@H]2C(=O)O[C@H]([C@H](C)C[C@@H]2CC[C@@H](O)[C@H](OC)C2)CC(=O)[C@H](C)/C=C(\C)[C@@H](O)[C@@H](OC)C(=O)[C@H](C)C[C@H](C)/C=C/C=C/C=C/1C [Rapamycin (Sirolimus)] | 88% | 89% | 75% | – | – | – |
| C#CCN[C@@H]1CCc2ccccc21 [Rasagiline Mesylate] | – | – | – | 116% | 130% | 99% |
| O=C(NC(Cc1cc(=O)[nH]c2ccccc12)C(=O)O)c1ccc(Cl)cc1 (stereo not drawn) [Rebamipide] | 88% | 93% | 92% | – | – | – |
| COCCCOc1ccnc(C[S+]([O-])c2nc3ccccc3[n-]2)c1C.[Na+] (stereo not drawn) [Rebeprazole sodium] | 97% | 99% | 78% | – | – | – |
| CCOc1ccccc1OC(c1ccccc1)C1CNCCO1.CS(=O)(=O)O (stereo not drawn) [Reboxetine mesylate] | 125% | 118% | 99% | – | – | – |
| CNC(=O)c1cc(Oc2ccc(NC(=O)Nc3ccc(Cl)c(C(F)(F)F)c3)c(F)c2)ccn1 [Regorafenib (BAY 73-4506)] | 86% | 88% | 79% | – | – | – |
| CCOc1cc(CC(=O)N[C@@H](CC(C)C)c2ccccc2N2CCCCC2)ccc1C(=O)O [Repaglinide] | 96% | 81% | 87% | – | – | – |
| COC(=O)[C@H]1[C@H]2C[C@@H]3c4[nH]c5cc(OC)ccc5c4CCN3C[C@H]2C[C@@H](OC(=O)c2cc(OC)c(OC)c(OC)c2)[C@@H]1OC [Reserpine] | 110% | 105% | 92% | – | – | – |
| CN(C)Cc1ccc(S(=O)(=O)n2ccc(/C=C/C(=O)NO)c2)cc1 [Resminostat] | 102% | 113% | 90% | – | – | – |
| Oc1cccc(O)c1 [Resorcinol] | 100% | 88% | 77% | – | – | – |
| Oc1ccc(/C=C/c2cc(O)cc(O)c2)cc1 [Resveratrol] | 107% | 112% | 84% | – | – | – |
| C=C[C@]1(C)C[C@@H](OC(=O)CS[C@@H]2C[C@H]3CC[C@@H](C2)N3C)[C@]2(C)[C@H](C)CC[C@]3(CCC(=O)[C@H]32)[C@@H](C)[C@@H]1O [Retapamulin] | 85% | 123% | 67% | – | – | – |

| Compound | % Phosphatase Activity (compared to DMSO) PRL-1 [1, 4] | % Phosphatase Activity (compared to DMSO) PRL-2 [2, 4] | % Phosphatase Activity (compared to DMSO) PRL-3 [3, 4] | % Phosphatase Activity (compared to DMSO) PRL-1 [1] | % Phosphatase Activity (compared to DMSO) PRL-2 [2] | % Phosphatase Activity (compared to DMSO) PRL-3 [3] |
| --- | --- | --- | --- | --- | --- | --- |
| NC(=O)c1ncn([C@@H]2O[C@H](CO)[C@@H](O)[C@H]2O)n1 [Ribavirin] | 105% | 108% | 83% | – | – | – |
| CO[C@H]1/C=C/O[C@@]2(C)Oc3c(C)c(O)c4c(c3C2=O)C2=NC3(CCN(CC(C)C)CC3)NC2=C(NC(=O)/C(C)=C\C=C\[C@H](C)[C@H](O)[C@@H](C)[C@@H](O)[C@@H](C)[C@H](OC(C)=O)[C@@H]1C)C4=O [Rifabutin] | 61% | 63% | 72% | – | – | – |
| CO[C@H]1/C=C/O[C@@]2(C)Oc3c(C)c(O)c4c(O)c(c(/C=N/N5CCN(C)CC5)c(O)c4c3C2=O)NC(=O)/C(C)=C\C=C\[C@H](C)[C@H](O)[C@@H](C)[C@@H](O)[C@@H](C)[C@H](OC(C)=O)[C@@H]1C [Rifampin] | 58% | 49% | 71% | – | – | – |
| CO[C@H]1/C=C/O[C@@]2(C)Oc3c(C)c(O)c4c(O)c(c(/C=N/N5CCN(C6CCCC6)CC5)c(O)c4c3C2=O)NC(=O)/C(C)=C\C=C\[C@H](C)[C@H](O)[C@@H](C)[C@@H](O)[C@@H](C)[C@H](OC(C)=O)[C@@H]1C [Rifapentine] | 61% | 57% | 74% | – | – | – |
| CO[C@H]1/C=C/O[C@@]2(C)Oc3c(C)c(O)c4c(O)c(c5c(nc6cc(C)ccn65)c4c3C2=O)NC(=O)/C(C)=C\C=C\[C@H](C)[C@H](O)[C@@H](C)[C@@H](O)[C@@H](C)[C@H](OC(C)=O)[C@@H]1C [Rifaximin] | 64% | 60% | 79% | – | – | – |
| COc1cc(OC)c(/C=C/S(=O)(=O)Cc2ccc(OC)c(NCC(=O)O)c2)c(OC)c1 [Rigosertib (ON-01910)] | 95% | 86% | 78% | – | – | – |
| Cc1cc(/C=C/C#N)cc(C)c1Nc1ccnc(Nc2ccc(C#N)cc2)n1 [Rilpivirine] | 139% | 116% | 136% | – | – | – |
| CC(N)C12CC3CC(CC(C3)C1)C2 (stereo not drawn) [Rimantadine] | 91% | 106% | 80% | – | – | – |
| Cc1c(C(=O)NN2CCCCC2)nn(-c2ccc(Cl)cc2Cl)c1-c1ccc(Cl)cc1 [Rimonabant] | 103% | 116% | 98% | – | – | – |
| COC(=O)N(C)c1c(N)nc(-c2nn(Cc3ccccc3F)c3ncccc23)nc1N [Riociguat (BAY 63-2521)] | 99% | 82% | 90% | – | – | – |
| C[C@H]1CNCCCN1S(=O)(=O)c1cccc2cncc(F)c12 [Ripasudil (K-115)] | 95% | 94% | 96% | – | – | – |
| Cc1nc2n(c(=O)c1CCN1CCC(c3noc4cc(F)ccc34)CC1)CCCC2 [Risperidone] | 104% | 94% | 88% | – | – | – |
| CC(NCCc1ccc(O)cc1)C(O)c1ccc(O)cc1 (stereo not drawn) [Ritodrine HCl] | 113% | 98% | 83% | – | – | – |
| CC(C)c1nc(CN(C)C(=O)N[C@H](C(=O)N[C@@H](Cc2ccccc2)C[C@H](O)[C@H](Cc2ccccc2)NC(=O)OCc2cncs2)C(C)C)cs1 [Ritonavir] | 103% | 108% | 90% | – | – | – |
| O=C(NC[C@H]1CN(c2ccc(N3CCOCC3=O)cc2)C(=O)O1)c1ccc(Cl)s1 [Rivaroxaban] | 98% | 106% | 92% | – | – | – |
| CCN(C)C(=O)Oc1cccc([C@H](C)N(C)C)c1 [Rivastigmine Tartrate] | 95% | 107% | 79% | – | – | – |
| CCN(C)C(=O)Oc1cccc([C@H](C)N(C)C)c1 [Rivastigmine] | 98% | 94% | 92% | – | – | – |
| CN(C)CCc1c[nH]c2ccc(Cn3cncn3)cc12 [Rizatriptan Benzoate] | 98% | 103% | 90% | – | – | – |
